Test results taken from US7928135B2, “Benzene, pyridine, and pyridazine derivatives” (Serenex, Inc., priority 2005, dated 2011).

Assays:
[1] = tested on: HSP-90 (heat shock protein 90); test: Determination of affinity for HSP-90 (elution from purine affinity column, SDS-PAGE densitometry); type: binding; set-up: key: +++: very high; ++: high; +: moderate; settings: elution of HSP-90 from purine affinity column with 20, 100 and 500 μM test compound
Description: Affinity of test compounds for HSP-90 was determined as follows: Protein mixtures obtained from a variety of organ tissues (for example: spleen, liver and lung) were reversibly bound to a purine affinity column to capture purine-binding proteins, especially HSP-90. The purine affinity column was washed several times, and then eluted with 20 μM, 100 μM, and 500 μM of test compound. Compounds of Formula I elute HP-90 in a dose-dependent manner vs. a control elution using dimethylsulfoxide. The elution profile of Formula I compounds was determined by 1-dimensional SDS polyacrylamide gel electrophoresis. Gels were stained with a fluorescent stain such as sypro ruby (a highly sensitive fluorescent protein stain that can readily detect less than 1 fmol of total protein, i.e., less than 0.04 ng for a 40 kDa protein) or silver nitrate. The gels were imaged using a standard flat bed gel imager and the amount of protein estimated by densitometry. The percent of HSP-90 protein eluted from the column at each concentration was determined and IC50 values were calculated from these estimates. The identity of a band containing HSP-90 was determined by protein sequencing using mass spectroscopy.
Compounds of the invention are inhibitors of HSP-90 (heat shock protein 90). Several exemplary compounds useful in the methods of the invention are listed below.

PC-3 cell proliferation = test: Cell proliferation assay (WST-1), PC-3; type: cell-based; settings: Homo sapiens; PC-3 cells, WST-1 readout; read-out: inhibitory activity against PC-3 cell proliferation (IC50 range)
Description: A panel of cancer cell lines was obtained from the DCTP Tumor Repository, National Cancer Institute (Frederick, Md.) or ATCC (Rockville, Md.). Cell cultures were maintained in Hyclone RPMI 1640 medium (Logan, Utah) supplemented with 10% fetal bovine serum and 20 mM HEPES buffer, final pH 7.2, at 37° C. with a 5% CO2 atmosphere. Cultures were maintained at sub-confluent densities. Human umbilical vein endothelial cells (HUVEC) were purchased from Clonetics, a division of Cambrex (Walkersville, Md.). Cultures were established from cryopreserved stocks using Clonetics EGM-2 medium supplemented with 20 mM HEPES, final pH 7.2, at 37° C. with a 5% CO2 atmosphere.
For proliferation assays, cells were seeded with the appropriate medium into 96 well plates at 1,000-2,500 cells per well, depending on the cell line, and were incubated overnight. The following day, test compound, DMSO solution (negative control), or Actinomycin D (positive control) was added to the appropriate wells as 10× concentrated stocks prepared in phosphate buffered saline. The cell plates were then incubated for an additional 2-5 days, depending on the cell line, to allow proliferation to occur. To measure cell density, 50 μL of WST-1 solution (Roche Applied Science, Ind.) diluted 1:5 in phosphate buffered saline was added to each well, and the cells incubated for an additional 1-5 hrs., again depending on the cell line. Optical density was determined for each well at […] using a Tecan GeniosPro plate reader (RTP, NC). The percentage of cell growth was determined by comparing the cell growth in the presence of test compounds to the cells treated with DMSO vehicle (control, 100% growth) and cells treated with Actinomycin D (10 μM, 0% growth). […]

Cc1nn(-c2ccc(C(N)=O)c(NCCCS(C)(=O)=O)c2)c2c1C(=O)CC(C)(C)C2 [Compound 132, 2-{[3-(methylsulfonyl)propyl]amino}-4-(3,6,6-trimethyl-4-oxo-4,5,6,7-tetrahydro-1H-indazol-1-yl)benzamide]
relative binding affinity to HSP-90 [1]: +++

C=CCNc1cc(-n2cc(C)c3c2CC(C)(C)CC3=O)ccc1C(N)=O [Compound 50, 2-(allylamino)-4-(3,6,6-trimethyl-4-oxo-4,5,6,7-tetrahydroindol-1-yl)benzamide]
relative binding affinity to HSP-90 [1]: +++

CCc1cc(-n2nc(C)c3c2CC(C)(C)CC3=O)ccc1C(N)=O [Compound 102, 2-ethyl-4-(3,6,6-trimethyl-4-oxo-4,5,6,7-tetrahydro-1H-indazol-1-yl)benzamide]
relative binding affinity to HSP-90 [1]: ++
IC50 (PC-3 cell proliferation): 5 to 50 µM

Cc1cc2c(n1-c1ccc(C(N)=O)c(-n3ccnc3)c1)CC(C)(C)CC2=O [Compound 80, 2-(1H-imidazol-1-yl)-4-(2,6,6-trimethyl-4-oxo-4,5,6,7-tetrahydro-1H-indol-1-yl)benzamide]
relative binding affinity to HSP-90 [1]: +

COc1cc(Nc2cc(-n3nc(C(F)(F)F)c4c3CC(C)(C)CC4=O)ccc2C(N)=O)cc(OC)c1OC [Compound 107, 4-[6,6-dimethyl-4-oxo-3-(trifluoromethyl)-4,5,6,7-tetrahydro-1H-indazol-1-yl]-2-[(3,4,5-trimethoxyphenyl)amino]benzamide]
relative binding affinity to HSP-90 [1]: ++

Cc1cn(-c2ccc(C(N)=O)c(Sc3ccncc3)c2)c2c1C(=O)CC(C)(C)C2 [Compound 105, 2-(pyridin-4-ylthio)-4-(3,6,6-trimethyl-4-oxo-4,5,6,7-tetrahydro-1H-indol-1-yl)benzamide]
relative binding affinity to HSP-90 [1]: ++
IC50 (PC-3 cell proliferation): 5 to 50 µM

COc1ccc(Nc2cc(-n3c(C)cc4c3CC(C)(C)CC4=O)ccc2C(N)=O)cn1 [Compound 87, 2-[(6-methoxypyridin-3-yl)amino]-4-(2,6,6-trimethyl-4-oxo-4,5,6,7-tetrahydro-1H-indol-1-yl)benzamide]
relative binding affinity to HSP-90 [1]: ++

COCCNc1cc(-n2nc(C)c3c2CC(C)(C)CC3=O)ccc1C(N)=O [Compound 95, 2-[(2-methoxyethyl)amino]-4-(3,6,6-trimethyl-4-oxo-4,5,6,7-tetrahydro-1H-indazol-1-yl)benzamide]
relative binding affinity to HSP-90 [1]: +++

Cc1cn(-c2ccc(C(N)=O)c(NC3CCc4ccccc43)c2)c2c1C(=O)CC(C)(C)C2 (centres unmarked) [Compound 54, 2-(2,3-dihydro-1H-inden-1-ylamino)-4-(3,6,6-trimethyl-4-oxo-4,5,6,7-tetrahydroindol-1-yl)benzamide]
relative binding affinity to HSP-90 [1]: +

CC1(C)CC(=O)c2c(C(F)F)nn(-c3ccc(C(N)=O)c(NC4CCSCC4)c3)c2C1 [Compound 32, 4-(3-Difluoromethyl-6,6-dimethyl-4-oxo-4,5,6,7-tetrahydro-indazol-1-yl)-2-(tetrahydro-thiopyran-4-ylamino)-benzamide]
relative binding affinity to HSP-90 [1]: +++

CCn1nccc1Nc1cc(-n2c(C)cc3c2CC(C)(C)CC3=O)ccc1C(N)=O [Compound 83, 2-[(1-ethyl-1H-pyrazol-5-yl)amino]-4-(2,6,6-trimethyl-4-oxo-4,5,6,7-tetrahydro-1H-indol-1-yl)benzamide]
relative binding affinity to HSP-90 [1]: +++

Cc1nn(-c2ccc(C(N)=O)c(N[C@H]3CCN(S(C)(=O)=O)C3)c2)c2c1C(=O)CC(C)(C)C2 [Compound 135, 2-{[(3S)-1-(methylsulfonyl)pyrrolidin-3-yl]amino}-4-(3,6,6-trimethyl-4-oxo-4,5,6,7-tetrahydro-1H-indazol-1-yl)benzamide]
relative binding affinity to HSP-90 [1]: +++

Cc1cc2c(n1-c1ccc(C(N)=O)c(Nc3ccc(Cl)cc3)c1)CC(C)(C)CC2=O [Compound 73, 2-[(4-chlorophenyl)amino]-4-(2,6,6-trimethyl-4-oxo-4,5,6,7-tetrahydro-1H-indol-1-yl)benzamide]
relative binding affinity to HSP-90 [1]: +

Cc1cc2c(n1-c1cnc(C(N)=O)c(Nc3ccccc3)c1)CC(C)(C)CC2=O [Compound 75, 3-anilino-5-(2,6,6-trimethyl-4-oxo-4,5,6,7-tetrahydro-1H-indol-1-yl)pyridine-2-carboxamide]
relative binding affinity to HSP-90 [1]: +++

C=CCCc1nn(-c2ccc(C(N)=O)cc2)c2c1C(=O)CC(C)(C)C2 [Compound 134, 4-(3-but-3-en-1-yl-6,6-dimethyl-4-oxo-4,5,6,7-tetrahydro-1H-indazol-1-yl)benzamide]
relative binding affinity to HSP-90 [1]: ++

CC(=O)OCC(=O)NCCNc1cc(-n2cc(C)c3c2CC(C)(C)CC3=O)ccc1C(N)=O [Compound 111, 2-[(2-{[2-(aminocarbonyl)-5-(3,6,6-trimethyl-4-oxo-4,5,6,7-tetrahydro-1H-indol-1-yl)phenyl]amino}ethyl)amino]-2-oxoethyl acetate]
relative binding affinity to HSP-90 [1]: +++

Cc1nn(-c2ccc(C(N)=O)c(NC3CN(S(C)(=O)=O)C3)c2)c2c1C(=O)CC(C)(C)C2 [Compound 131, 2-{[1-(methylsulfonyl)azetidin-3-yl]amino}-4-(3,6,6-trimethyl-4-oxo-4,5,6,7-tetrahydro-1H-indazol-1-yl)benzamide]
relative binding affinity to HSP-90 [1]: ++

Cc1nn(-c2ccc(C(N)=O)c(Nc3ccc(=O)[nH]c3)c2)c2c1C(=O)CC(C)(C)C2 [Compound 115, 2-[(6-oxo-1,6-dihydropyridin-3-yl)amino]-4-(3,6,6-trimethyl-4-oxo-4,5,6,7-tetrahydro-1H-indazol-1-yl)benzamide]
relative binding affinity to HSP-90 [1]: +++

Cc1nn(-c2ccc(C(N)=O)c(NCCCN3CCCC3=O)c2)c2c1C(=O)CC(C)(C)C2 [Compound 34, 2-[3-(2-Oxo-pyrrolidin-1-yl)-propylamino]-4-(3,6,6-trimethyl-4-oxo-4,5,6,7-tetrahydro-indazol-1-yl)-benzamide]
relative binding affinity to HSP-90 [1]: ++

Cc1cc2c(n1-c1ccc(C(N)=O)c(N[C@H](C(=O)O)C(C)C)c1)CC(C)(C)CC2=O [Compound 78, N-[2-(aminocarbonyl)-5-(2,6,6-trimethyl-4-oxo-4,5,6,7-tetrahydro-1H-indol-1-yl)phenyl]-L-valine]
relative binding affinity to HSP-90 [1]: +

COc1cc(Nc2cc(-n3ccc4c3CCCC4=O)ccc2C(N)=O)cc(OC)c1OC [Compound 86, 4-(4-oxo-4,5,6,7-tetrahydro-1H-indol-1-yl)-2-[(3,4,5-trimethoxyphenyl)amino]benzamide]
relative binding affinity to HSP-90 [1]: ++

Cc1cn(-c2ccc(C(N)=O)c(NCCN3CCOCC3)c2)c2c1C(=O)CC(C)(C)C2 [Compound 96, 2-[(2-morpholin-4-ylethyl)amino]-4-(3,6,6-trimethyl-4-oxo-4,5,6,7-tetrahydro-1H-indol-1-yl)benzamide]
relative binding affinity to HSP-90 [1]: +++

CC1(C)CC(=O)c2c(C(F)(F)F)nn(-c3ccc(C(N)=O)c(NCC(O)CO)c3)c2C1 (centres unmarked) [Compound 30, 2-(2,3-Dihydroxy-propylamino)-4-(6,6-dimethyl-4-oxo-3-trifluoromethyl-4,5,6,7-tetrahydro-indazol-1-yl)-benzamide]
relative binding affinity to HSP-90 [1]: ++

COCCNc1cc(-n2c(C)c(C)c3c2CCCC3=O)ccc1C(N)=O [Compound 92, 4-(2,3-dimethyl-4-oxo-4,5,6,7-tetrahydro-1H-indol-1-yl)-2-[(2-methoxyethyl)amino]benzamide]
relative binding affinity to HSP-90 [1]: ++

C=CCNc1cc(-n2ccc3c2CCCC3=O)ccc1C(N)=O [Compound 88, 2-(allylamino)-4-(4-oxo-4,5,6,7-tetrahydro-1H-indol-1-yl)benzamide]
relative binding affinity to HSP-90 [1]: ++

Cc1cc2c(n1-c1ccc(C(N)=O)c(N3CCOCC3)c1)CC(C)(C)CC2=O [Compound 79, 2-morpholin-4-yl-4-(2,6,6-trimethyl-4-oxo-4,5,6,7-tetrahydro-1H-indol-1-yl)benzamide]
relative binding affinity to HSP-90 [1]: +

Cc1cn(-c2ccc(C(N)=O)c(NC3CCN(C(=O)CN(C)C)CC3)c2)c2c1C(=O)CC(C)(C)C2 [Compound 109, 2-{[1-(N,N-dimethylglycyl)piperidin-4-yl]amino}-4-(3,6,6-trimethyl-4-oxo-4,5,6,7-tetrahydro-1H-indol-1-yl)benzamide]
relative binding affinity to HSP-90 [1]: ++
